Results: patent US20260308222A1, “STABILIZED ANALOGUES OF CALCITONIN” (YISSUM RESEARCH DEVELOPMENT COMPANY OF THE HEBREW …, priority 2024, published 2026)

How the values were obtained:
[1] = test system: vertebral fracture / acute back pain; details: cited from earlier work
[2] = Circular dichroism analysis, percent α-helicity; type: physicochemical; details: 10-30 μM peptide, 10 mM phosphate buffer pH 7, SDS, 2 h folding
Protocol: Following synthesis of the calcitonin analogues, the helicity of the calcitonin analogues was assessed by circular dichroism analysis. Far ultraviolet spectra (FIG. 6) were obtained from 195-260 nm on J-180 spectropolarimeter (Jasco) using 10-30 μM of sCT and all analogues in 10 mM phosphate buffer pH 7 and in the presence of sodium dodecyl sulphate (SDS), which were left for 2 h to allow folding. Each spectrum represents the average of 3 scans, and the mean residue ellipticity (θMRE) was calculated according to the following equation: […]
Percentage helicity of peptides as presented in Table 2 was calculated according to the following equation (Sommese, et al. 2010): […]
where n is the number of amino acids in the peptide.

[3] = Degradation in simulated gastric fluid (SGF); type: in vitro ADME; details: pH 1.3, 37 °C
Protocol: sCT and its analogues were evaluated for their degradation in simulated gastric fluid (SGF). The stock solution of each analogue was prepared by dissolving 2 mg of the peptide in 1 mL water. The stock solution of pepsin enzyme was prepared by dissolving 5 mg of pepsin in 5 mL of 10 mM HCl (1 mg/mL), and then was diluted to a 0.2 mg/mL with 10 mM HCl. 7 For degradation, 34 μL of pepsin (0.2 mg/mL) was added to 100 μL of peptide (2 mg/mL) at pH 1.3 and the reaction incubated at 37° C. To monitor the degradation, 10 μL of the reaction aliquots were taken and quenched with 10 μL of 10 mM NaOH every 30 min for several hours and analyzed by HPLC using XSelect C18 column ([…], 130 A, 4.6×150 mm) with a gradient of 5-70% of 0.1% TFA in MeCN over 20 min with monitoring at 220 nm.

[4] = test system: human calcitonin receptor (hCTR); details: Potts Jr., 1992; cited from earlier work
[5] = biological target: T1, calcitonin receptor (CTR) (Homo sapiens, UniProt P30988); assay: Ca^2+ concentration assay, HEK293 CALCR-HiTSeeker cell line; type: cell-based; design: expressed in transfected cells; details: HEK293 CALCR-HiTSeeker cells
T1 sequence (P30988 25-474): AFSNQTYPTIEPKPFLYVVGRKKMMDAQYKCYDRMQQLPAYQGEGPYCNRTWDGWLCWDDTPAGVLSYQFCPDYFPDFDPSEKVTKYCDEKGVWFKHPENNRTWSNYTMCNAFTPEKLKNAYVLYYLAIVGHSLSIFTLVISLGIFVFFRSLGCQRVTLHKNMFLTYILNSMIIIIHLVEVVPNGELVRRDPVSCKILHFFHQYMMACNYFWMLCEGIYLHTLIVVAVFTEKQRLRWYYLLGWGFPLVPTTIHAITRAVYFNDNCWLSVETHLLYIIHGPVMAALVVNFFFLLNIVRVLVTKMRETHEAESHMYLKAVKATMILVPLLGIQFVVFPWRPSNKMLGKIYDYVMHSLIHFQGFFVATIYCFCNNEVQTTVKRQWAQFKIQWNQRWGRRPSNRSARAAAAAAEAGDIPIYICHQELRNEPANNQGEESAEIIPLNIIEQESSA

[6] = Degradation in simulated intestinal fluid (SIF); details: simulated intestinal fluid, pH 6.8, SIF t1/2, pancreatin 2 mg/mL stock, pH 6.8, 37 °C
[7] = biological target: T1, calcitonin receptor (CTR); assay: cAMP accumulation assay, U2OS Red cAMPNomad-CALCR cell line; type: cell-based; design: expressed in transfected cells; host or cells: U2OS Red cAMPNomad-CALCR; details: U2OS Red cAMPNomad-CALCR cells

calcitonin
vertebral fracture recurrence and pain relief ([1]; Chesnut III, et al., 2000): reduces the risk of vertebral fracture recurrence and provides pain relief for acute back pain caused by vertebral fractures

CC(C)C[C@H](NC(=O)[C@H](CCCCN)NC(=O)CNC(=O)[C@H](CC(C)C)NC(=O)[C@@H](NC(=O)[C@@H]1CSSC[C@H](N)C(=O)N[C@@H](CO)C(=O)N[C@@H](CC(N)=O)C(=O)N[C@@H](CC(C)C)C(=O)N[C@@H](CO)C(=O)N[C@@H]([C@@H](C)O)C(=O)N1)C(C)C)C(=O)N[C@@H](CO)C(=O)N[C@@H](CCC(N)=O)C(=O)N[C@@H](CCC(=O)O)C(=O)N[C@@H](CC(C)C)C(=O)N[C@@H](Cc1c[nH]cn1)C(=O)N[C@@H](CCCCN)C(=O)N[C@@H](CC(C)C)C(=O)N[C@@H](CCC(N)=O)C(=O)N[C@H](C(=O)N[C@@H](Cc1ccc(O)cc1)C(=O)N1CCC[C@H]1C(=O)N[C@@H](CCCNC(=N)N)C(=O)N[C@H](C(=O)N[C@@H](CC(N)=O)C(=O)N[C@H](C(=O)NCC(=O)N[C@@H](CO)C(=O)NCC(=O)N[C@H](C(=O)N1CCC[C@H]1C(N)=O)[C@@H](C)O)[C@@H](C)O)[C@@H](C)O)[C@@H](C)O [sCT, reference compound]
% α helicity [2]: 98.6% | SGF t1/2 ([3]; pepsin 0.2 mg/mL stock): 35.6 ± 0.1 min | half-life ([3]; simulated gastric fluid, pH 1.3, pepsin 0.2 mg/mL stock, read-out: SGF t1/2): 35 min | affinity for hCTR [4]: highest affinity for the human calcitonin receptor (hCTR) | potency [4]: highest potency | side effects of parenteral sCT ([1]; intra-muscular and subcutaneous injections): gastrointestinal (GI) disturbances and injection site reactions | Ca^2+ EC50 / efficacy [5]: similar | EC50 ([5]; read-out: Ca^2+ EC50): 87 ± 17.5 nM | half-life [6]: 7.1 ± 0.7 min | cAMP EC50 / potency [7]: EC50 in the nanomolar range | EC50 ([7]; overnight incubation, read-out: cAMP EC50): 13.5 ± 4.5 nM
